# Measurements reported in US20240308978A1, “COMPOUNDS AND COMPOSITIONS FOR TREATING CONDITIONS ASSOCIATED WITH STING ACTIVITY” (IFM Due, Inc., priority 2021, published 2024).
# Target: T1, hSTING (Homo sapiens, UniProt Q86WV6, G230A/H232R/R293Q/R71H)
# T1 construct: host or cells: THP1-Dual KO-IFNAR2 cells
# Assay: STING reporter assay (luciferase) in THP1-Dual KO-IFNAR2 cells stimulated with 2′3′cGAMP
# Type: cell-based
# Details: 15 μM 2′3′cGAMP transfected, 24 h, class symbols
# Description: STING pathway activation by the compounds described herein was measured using THP1-Dual™ cells (KO-IFNAR2).
# THP1-Dual™ KO-IFNAR2 Cells (obtained from invivogen) were maintained in RPMI, 10% FCS, 5 ml P/S, 2 mM L-glut, 10 mM Hepes, and 1 mM sodium pyruvate. Compounds were spotted in empty 384 well tissue culture plates (Greiner 781182) by Echo for a final concentration of 0.0017-100 μM. Cells were plated into the TC plates at 40 μL per well, 2×10E6 cells/mL. For activation with STING ligand, 2′3′cGAMP (MW 718.38, obtained from Invivogen), was prepared in Optimem media.
# The following solutions were prepared for each 1×384 plate: • Solution A: 2 mL Optimem with one of the following stimuli: • 60 μL of 10 mM 2′3′cGAMP→150 μM stock • Solution B: 2 mL Optimem with 60 μL Lipofectamine 2000→Incubate 5 min at RT
# 2 mL of solution A and 2 ml Solution B was mixed and incubated for 20 min at room temperature (RT). 20 μL of transfection solution (A+B) was added on top of the plated cells, with a final 2′3′cGAMP concentration of 15 μM. The plates were then centrifuged immediately at 340 g for 1 minute, after which they were incubated at 37° C., 5% CO2,>98% humidity for 24 h. Luciferase reporter activity was then measured. EC50 values were calculated by using standard methods known in the art.
# Luciferase reporter assay: 10 μL of supernatant from the assay was transferred to white 384-plate with flat bottom and squared wells. One pouch of QUANTI-Luc™ Plus was dissolved in 25 mL of water. 100 μL of QLC Stabilizer per 25 mL of QUANTI-Luc™ Plus solution was added. 50 μL of QUANTI-Luc™ Plus/QLC solution per well was then added. Luminescence was measured on a Platereader (e.g., Spectramax I3X (Molecular Devices GF3637001)).
# Luciferase reporter activity was then measured. EC50 values were calculated by using standard methods known in the art.
# T1 sequence (Q86WV6 whole entry R71H/G230A/H232R/R293Q): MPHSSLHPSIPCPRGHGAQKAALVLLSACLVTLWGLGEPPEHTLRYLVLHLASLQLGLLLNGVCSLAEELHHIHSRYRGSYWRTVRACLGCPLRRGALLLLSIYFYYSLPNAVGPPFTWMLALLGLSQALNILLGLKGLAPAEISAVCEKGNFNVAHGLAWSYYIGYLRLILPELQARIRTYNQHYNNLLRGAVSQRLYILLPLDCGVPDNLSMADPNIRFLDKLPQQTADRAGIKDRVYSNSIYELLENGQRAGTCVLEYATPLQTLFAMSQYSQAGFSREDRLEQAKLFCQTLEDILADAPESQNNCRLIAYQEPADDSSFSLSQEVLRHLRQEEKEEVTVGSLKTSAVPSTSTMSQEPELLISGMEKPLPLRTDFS
row,SMILES,EC50 [nM]
1,"O=C(Nc1c[nH]c2ccc(Cl)cc12)N[C@H]1CC[C@@H](N2CCC(F)(F)CC2)CC1 [Compound 102, 1-(5-chloro-1H-indol-3-yl)-3-((1s,4s)-4-(4,4-difluoropiperidin-1-yl)cyclohexyl)urea]",5000 to 100000
2,"O=C(Nc1c[nH]c2ncc(F)cc12)N[C@H]1CC[C@@H](Oc2ccc(C(F)(F)F)cn2)CC1 [Compound 115, 1-(5-fluoro-1H-pyrrolo[2,3-b]pyridin-3-yl)-3-((1s,4s)-4-((5-(trifluoromethyl)pyridin-2-yl)oxy)cyclohexyl)urea]",1000 to 5000
3,"O=C(Nc1c[nH]c2ccc(Cl)cc12)NC1CCN(Cc2ccc(C(F)(F)F)cn2)CC1 [Compound 107, 1-(5-chloro-1H-indol-3-yl)-3-(1-((5-(trifluoromethyl)pyridin-2-yl)methyl)piperidin-4-yl)urea]",1000 to 5000
4,"O=C(Nc1c[nH]c2cc(F)c(F)cc12)N[C@H]1CC[C@H](OC2CC(F)(F)C2)CC1 [Compound 101, 1-(5,6-difluoro-1H-indol-3-yl)-3-((1r,4r)-4-(3,3-difluorocyclobutoxy)cyclohexyl)urea]",1000 to 5000
5,"O=C(Nc1c[nH]c2ccc(Cl)cc12)N[C@H]1CC[C@H](N2CCC(F)(F)CC2)CC1 [Compound 103, 1-(5-chloro-1H-indol-3-yl)-3-((1r,4r)-4-(4,4-difluoropiperidin-1-yl)cyclohexyl)urea]",5000 to 100000
6,"O=C(Nc1c[nH]c2cc(F)c(F)cc12)NC1CC(OC2CCN(CC(F)(F)F)CC2)C1 (stereo not drawn) [Compound 104, 1-(5,6-difluoro-1H-indol-3-yl)-3-(3-((1-(2,2,2-trifluoroethyl)piperidin-4-yl)oxy)cyclobutyl)urea]",1000 to 5000

# Now from value to compound:
row,EC50 [nM],SMILES
1,200 to 1000,"O=C(Nc1c[nH]c2ccc(F)cc12)N[C@H]1CC[C@H](Oc2ccc(C(F)(F)F)cn2)CC1 [Compound 108, 1-(5-fluoro-1H-indol-3-yl)-3-((1r,4r)-4-((5-(trifluoromethyl)pyridin-2-yl)oxy)cyclohexyl)urea]"
2,200 to 1000,"O=C(Nc1c[nH]c2ccc(F)cc12)N[C@H]1CC[C@@H](Oc2ccc(C(F)(F)F)cn2)CC1 [Compound 109, 1-(5-fluoro-1H-indol-3-yl)-3-((1s,4s)-4-((5-(trifluoromethyl)pyridin-2-yl)oxy)cyclohexyl)urea]"
3,200 to 1000,"O=C(Nc1c[nH]c2ccc(Cl)cc12)N[C@H]1C[C@H](Oc2ccc(C(F)(F)F)cn2)C1 [Compound 110, 1-(5-chloro-1H-indol-3-yl)-3-((1r,3r)-3-((5-(trifluoromethyl)pyridin-2-yl)oxy)cyclobutyl)urea]"
4,200 to 1000,"O=C(Nc1c[nH]c2ccc(Cl)cc12)N[C@H]1CC[C@@H](Oc2ccc(C(F)(F)F)cn2)CC1 [Compound 113, 1-(5-chloro-1H-indol-3-yl)-3-((1s,4s)-4-((5-(trifluoromethyl)pyridin-2-yl)oxy)cyclohexyl)urea]"
5,200 to 1000,"O=C(Nc1c[nH]c2ccc(Cl)cc12)N[C@H]1CC[C@H](Oc2ccc(C(F)(F)F)cn2)CC1 [Compound 112, 1-(5-chloro-1H-indol-3-yl)-3-((1r,4r)-4-((5-(trifluoromethyl)pyridin-2-yl)oxy)cyclohexyl)urea]"
6,200 to 1000,"O=C(Nc1c[nH]c2ccc(Cl)cc12)NC1CCN(c2ccc(C(F)(F)F)cn2)CC1 [Compound 105, 1-(5-chloro-1H-indol-3-yl)-3-(1-(5-(trifluoromethyl)pyridin-2-yl)piperidin-4-yl)urea]"
7,200 to 1000,"O=C(Nc1c[nH]c2ccc(Cl)cc12)N[C@H]1C[C@@H](Oc2ccc(C(F)(F)F)cn2)C1 [Compound 111, 1-(5-chloro-1H-indol-3-yl)-3-((1s,3s)-3-((5-(trifluoromethyl)pyridin-2-yl)oxy)cyclobutyl)urea]"

# Same assay, conditions: 15 μM 2′3′cGAMP transfected, 24 h, numeric bound given instead of a class symbol
row,SMILES,EC50 [nM]
1,"O=C(Nc1c[nH]c2ncc(F)cc12)N[C@H]1CC[C@H](Oc2ccc(C(F)(F)F)cn2)CC1 [Compound 116, 1-(5-fluoro-1H-pyrrolo[2,3-b]pyridin-3-yl)-3-((1r,4r)-4-((5-(trifluoromethyl)pyridin-2-yl)oxy)cyclohexyl)urea]",> 30000
2,"COCCN1CCC(O[C@H]2CC[C@H](NC(=O)Nc3c[nH]c4ccc(Cl)cc34)CC2)CC1 [Compound 106, 1-(5-chloro-1H-indol-3-yl)-3-((1r,4r)-4-((1-(2-methoxyethyl)piperidin-4-yl)oxy)cyclohexyl)urea]",> 30000
